Test results taken from patent US8877717B2, “Anti-diabetic extract of rooibos” (Zadec ApS, priority 2007, dated 2014).

Legend:
[1] = Bioassay of purified fractions for anti-diabetic activity
Text: The partially purified active extract may be dissolved in methanol, and may be further fractionated by column chromatography, employing silica gel as an adsorption medium and a chloroform/30% methanol mixture as an eluent. A plurality of different fractions may be obtained, and each may be evaluated, by suitable bioassaying procedures, to determine the anti-diabetic activity thereof.
A fraction having anti-diabetic activity may preferably be further fractionated such as by column chromatography using silica gel as an adsorption medium and a 9:1 chloroform:methanol solvent, and the resultant sub-fractions bioassayed for their anti-diabetic activity. A sub-fraction displaying anti-diabetic activity may, if desired, be further fractionated and purified, conveniently using a column chromatographic procedure with silica gel as the adsorption medium and a 9:1 ethylacetate:hexane solvent. The resultant purified fractions may again be evaluated by suitable bioassay procedures for their anti-diabetic activity.

[2] = system: diabetic rats; assay: Flavonoids administered to diabetic rats (blood sugar); assay type: in vivo

Which “anti-diabetic activity of purified fraction” value [1] does the source give for `O=C(CCc1ccc(O)c(O)c1)c1c(O)cc(O)c([C@@H]2O[C@H](CO)[C@@H](O)[C@H](O)[C@H]2O)c1O` [aspalathin, 3′-C-fl-D-glucopyranosyl-2′,3,4,4′,6′-pentahydroxydihydrochalcone] here?
The value was “good anti-diabetic activity”.

And the “lowering the blood sugar and alleviating diabetic symptoms” value ([2]; T1D and T2D rats)?
Its value is “effective”.

What about the “effect in diabetic rats compared with the extract” value ([2]; flavonoids extracted and fractionated from Aspalathus) of the same compound?
Its value is “results similar to those produced by the extract”.
